Measured values as given in patent US7109333B2, “Heterocyclic compounds” (SmithKline Beecham Corporation, priority 1998, dated 2006).
Counter-ions that a name gives are not always drawn.

Assays:
c-erbB-2 = target: T1, c-erbB-2 (Homo sapiens, UniProt P04626); test: Substrate phosphorylation assay, erbB2, assay (b) (SPA, 33P-ATP); assay type: biochemical; details: Tables 1A and 1B
T1 construct: baculovirus expressed, recombinant constructs of the intracellular domains of c-erbB-2 and c-erbB-4; made in house
T1 sequence (P04626 676-1255 limits assumed): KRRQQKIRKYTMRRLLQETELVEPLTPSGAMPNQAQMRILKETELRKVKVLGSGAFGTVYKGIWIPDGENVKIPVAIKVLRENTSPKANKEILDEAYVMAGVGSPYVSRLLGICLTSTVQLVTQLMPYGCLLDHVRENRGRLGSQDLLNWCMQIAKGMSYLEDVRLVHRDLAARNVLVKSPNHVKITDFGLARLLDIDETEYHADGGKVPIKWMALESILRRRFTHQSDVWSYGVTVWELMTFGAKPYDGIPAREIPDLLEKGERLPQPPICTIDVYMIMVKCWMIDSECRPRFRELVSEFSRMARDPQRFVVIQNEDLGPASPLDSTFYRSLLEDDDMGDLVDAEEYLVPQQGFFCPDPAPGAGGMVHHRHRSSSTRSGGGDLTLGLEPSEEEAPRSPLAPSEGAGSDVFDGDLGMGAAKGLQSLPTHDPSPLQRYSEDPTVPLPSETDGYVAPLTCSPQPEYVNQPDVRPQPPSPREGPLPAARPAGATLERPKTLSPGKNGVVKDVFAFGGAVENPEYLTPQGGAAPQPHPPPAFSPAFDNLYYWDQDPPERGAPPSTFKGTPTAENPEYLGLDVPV
Source text: The substrate phosphorylation assays use baculovirus expressed, recombinant constructs of the intracellular domains of c-erbB-2 and c-erbB-4 that are constitutively active and EGFr isolated from solubilised A431 cell membranes. The method measures the ability of the isolated enzymes to catalyse the transfer of the g-phosphate from ATP onto tyrosine residues in a biotinylated synthetic peptide (Biotin-[…]. Substrate phosphorylation was detected following either of the following two procedures: a.) c-ErbB-2, c-ErbB4 or EGFr were incubated for 30 minutes, at room temperature, with 10 mM MnCl2, 10 mM ATP, 5 mM peptide, and test compound (diluted from a 5 mM stock in DMSO, final DMSO concentration is 2%) in 40 mM HEPES buffer, pH 7.4. The reaction was stopped by the addition of EDTA (final concentration 0.15 mM) and a sample was transferred to a streptavidin-coated 96-well plate. The plate was washed and the level of phosphotyrosine on the peptide was determined using a Europium-labelled antiphosphotyrosine antibody and quantified with a time-resolved fluorescence technique. b.) ErbB2 was incubated for 50 minutes at room temperature with 15 mM MnCl2, 2 mM ATP, 0.25 mCi [γ-^33P] ATP/well, 5 mM peptide substrate, and test compound (diluted from a 10 mM stock in DMSO, final DMSO concentration is 2%) in 50 mM MOPS pH 7.2. The reaction was terminated by the addition of […] of PBS containing 2.5 mg/ml streptavidin-coated SPA beads (Amersham Inc.), 50 mM ATP, 10 mM EDTA and 0.1% TX-100. The microtitre plates were sealed and SPA beads were allowed to settle for at least six hours. The SPA signal was measured using a Packard Topcount 96-well plate scintillation counter (Packard Instrument Co., Meriden, Conn.).

[1] = test system: HB4a c5.2 (HB4a transfected with human c-erbB2 cDNA); test: Methylene blue growth inhibition assay, HB4a erbB2; assay type: cell-based; details: 72 h, HB4a c5.2, 3 days, read-out: Cell Proliferation HB4a erbB2, IC50
Description: (§1) Human breast (BT474), head and neck (HN5) and gastric tumor (N87) cell lines were cultured in low glucose DMEM (Life Technologies 12320–032) containing 10% fetal bovine serum (FBS) at 37° C. in a humidified 10% CO2, 90% air incubator. The SV40 transformed human mammary epithelial cell line HB4a was transfected with either human H-ras cDNA (HB4a r4.2) or the human c-erbB2 cDNA (HB4a c5.2). The HB4a clones were cultured in RPMI containing 10% FBS, insulin (5 μg/ml), hydrocortisone (5 μg/ml), supplemented with the selection agent hygromycin B (50 μg/ml). Cells were harvested using trypsin/EDTA, counted using a haemocytometer, and plated in […] of the appropriate media, at the following densities, in a 96-well tissue culture plate (Falcon 3075): BT474 10,000 cells/well, HN5 3,000 cells/well, N87 10,000 cells/well, HB4a c5.2 3,000 cells/well, HB4a r4.2 3,000 cells/well. The next day, compounds were diluted in DMEM containing […] gentamicin, at twice the final required concentration, from 10 mM stock solutions in DMSO. […] of these dilutions were added to the […] of media currently on the cell plates. Medium containing 0.6% DMSO was added to control wells. Compounds diluted in DMEM were added to all cell lines, including the HB4a r4.2 and HB4a c5.2 cell lines. The final concentration of DMSO in all wells was 0.3%. Cells were incubated at 37° C., 10% CO2 for 3 days. Medium was removed by aspiration. Cell biomass was estimated by staining cells with 100 μl per well methylene blue (Sigma M9140, 0.5% in 50:50 ethanol:water), and incubation at room temperature for at least 30 minutes. Stain was removed, and the plates rinsed under a gentle stream of water, and air-dried. To release stain from the cells 100 μl of solubilization solution was added (1% N-lauroyl sarcosine, Sodium salt, Sigma L5125, in PBS), and plates were shaken gently for about 30 minutes. Optical density at 620 nm was measured on a microplate reader. Percent inhibition of cell growth was calculated relative to vehicle treated control wells. Concentration of compound that inhibits 50% of cell growth (IC50) was interpolated using nonlinear regression (Levenberg-Marquardt) and the equation, y=Vmax*(1−(x/(K+x)))+Y2, where “K” was equal to the IC50.

[2] = test system: HB4a r4.2 (HB4a transfected with human H-ras cDNA); test: Methylene blue growth inhibition assay, HB4a ras; assay type: cell-based; details: 72 h, HB4a r4.2, 3 days, read-out: Cell Proliferation HB4a ras, IC50
Description: as §1

[3] = test system: BT474 breast tumor cell line; test: Methylene blue growth inhibition assay, BT474; assay type: cell-based; details: Homo sapiens, BT-474, 72 h; BT474, 3 days; read-out: Cell Proliferation BT474, IC50
Description: as §1

[4] = test system: HN5 head and neck tumor cell line; test: Methylene blue growth inhibition assay, HN5; assay type: cell-based; details: Homo sapiens, 72 h; HN5, 3 days; read-out: Cell Proliferation HN5, IC50
Description: as §1

[5] = test system: N87 gastric tumor cell line; test: Methylene blue growth inhibition assay, N87; assay type: cell-based; details: Homo sapiens, 72 h; N87, 3 days; read-out: Cell Proliferation N87, IC50
Description: as §1

Row | Compound | IC50 (c-erbB-2) | IC50 [1] | IC50 [2] | IC50 [3] | IC50 [4] | IC50 [5]
1 | CS(=O)(=O)CCNCc1coc(-c2cc3c(Nc4ccc(OCc5cccc(F)c5)cc4)ncnc3cn2)c1 [Example 6, (4-(3-Fluorobenzyloxy)-phenyl)-(6-(4-((2-methanesulphonyl-ethylamino)-methyl)-furan-2-yl)-pyrido[3,4-d]pyrimidin-4-yl)-amine dihydrochloride] | 0.1 to 1 µM | < 5 µM | 25 to 50 µM | < 5 µM | < 5 µM | < 5 µM
2 | CS(=O)(=O)CCNCc1ccc(-c2ccc3ncnc(Nc4ccc(OCc5cccc(F)c5)cc4)c3c2)o1 [Example 8, N-{4-[(3-fluorobenzyl)oxy]phenyl}-6-[5-({[2-(methanesulphonyl)ethyl]amino}methyl)-2-furyl]-4-quinazolinamine] | < 0.1 µM | < 5 µM | 5 to 25 µM | < 5 µM | < 5 µM | < 5 µM
3 | COc1cc(Nc2ncnc3ccc(-c4ccc(CNCCS(C)(=O)=O)o4)cc23)ccc1OCc1cccc(F)c1 [Example 9, N-{4-[(3-fluorobenzyl)oxy]-3-methoxyphenyl}-6-[5-({[2-(methanesulphonyl)ethyl]amino}methyl)-2-furyl]-4-quinazolinamine] |  | < 5 µM | 5 to 25 µM | < 5 µM | < 5 µM | < 5 µM
4 | COc1cc2ncnc(Nc3ccc(OCc4ccccc4)cc3)c2cc1-c1ccc(CNCCS(C)(=O)=O)o1 [Example 10] | < 0.1 µM | < 5 µM | 5 to 25 µM | < 5 µM | < 5 µM | < 5 µM
5 | CS(=O)(=O)CCNCc1coc(-c2ccc3ncnc(Nc4ccc(OCc5ccccc5)cc4)c3c2)c1 [Example 11, N-[4-(benzyloxy)phenyl]-6-[4-({[2-(methanesulphonyl)ethyl]amino}methyl)-2-furyl]-4-quinazolinamine] | < 0.1 µM | < 5 µM | > 50 µM | < 5 µM | < 5 µM | < 5 µM
6 | COc1cc(Nc2ncnc3ccc(-c4csc(CNCCS(C)(=O)=O)n4)cc23)ccc1OCc1cccc(F)c1 [Example 12, N-{4-[(3-fluorobenzyl)oxy]-3-methoxyphenyl}-6-[2-({[2-(methanesulphonyl)ethyl]amino}methyl)-1,3-thiazol-4-yl]-4-quinazolinamine] | 0.1 to 1 µM | < 5 µM | > 50 µM | < 5 µM | 5 to 25 µM | < 5 µM
7 | CS(=O)(=O)CCNCc1nc(-c2ccc3ncnc(Nc4ccc(OCc5cccc(Br)c5)cc4)c3c2)cs1 [Example 13, N-{4-[(3-bromobenzyl)oxy]phenyl}-6-[2-({[2-(methanesulphonyl)ethyl]amino}methyl)-1,3-thiazol-4-yl]-4-quinazolinamine] | 0.1 to 1 µM | 5 to 25 µM | > 50 µM | 5 to 25 µM | 25 to 50 µM | 5 to 25 µM
8 | CS(=O)(=O)CCNCc1nc(-c2ccc3ncnc(Nc4ccc(OCc5cccc(F)c5)cc4)c3c2)cs1 [Example 14, N-{4-[(3-fluorobenzyl)oxy]phenyl}-6-[2-({[2-(methanesulphonyl)ethyl]amino}methyl)-1,3-thiazol-4-yl]-4-quinazolinamine] | < 0.1 µM | < 5 µM | > 50 µM | < 5 µM | < 5 µM | < 5 µM
9 | CS(=O)(=O)CCNCc1nc(-c2ccc3ncnc(Nc4ccc(OCc5ccccc5)c(F)c4)c3c2)cs1 [Example 15, N-[4-(benzyloxy)-3-fluorophenyl]-6-[2-({[2-(methanesulphonyl)ethyl]amino}methyl)-1,3-thiazol-4-yl]-4-quinazolinamine] | < 0.1 µM | < 5 µM | > 50 µM | < 5 µM | < 5 µM | < 5 µM
10 | COc1cc2ncnc(Nc3ccc4c(cnn4Cc4ccccc4)c3)c2cc1-c1ccc(CNCCS(C)(=O)=O)o1 [Example 16, N-(1-benzyl-1H-indazol-5-yl)-7-methoxy-6-[5-({[2-(methanesulphonyl)ethyl]amino}methyl)-2-furyl]-4-quinazolinamine] | < 0.1 µM | < 5 µM | 5 to 25 µM | < 5 µM | < 5 µM | < 5 µM
11 | CS(=O)(=O)CCNCc1ccc(-c2ccc3ncnc(Nc4ccc(OCc5cccc(C(F)(F)F)c5)cc4)c3c2)o1 [Example 17, 6-[5-({[2-(methanesulphonyl)ethyl]amino}methyl)-2-furyl]-N-(4-{[3-(trifluoromethyl)benzyl]oxy}phenyl)-4-quinazolinamine] | < 0.1 µM | 5 to 25 µM | 5 to 25 µM | < 5 µM | 5 to 25 µM | 5 to 25 µM
12 | CS(=O)(=O)CCNCc1ccc(-c2ccc3ncnc(Nc4ccc(OCc5cccc(F)c5)c(F)c4)c3c2)o1 [Example 18, N-{3-fluoro-4-[(3-fluorobenzyl)oxy]phenyl}-6-[5-({[2-(methanesulphonyl)ethyl]amino}methyl)-2-furyl]-4-quinazolinamine] | < 0.1 µM | < 5 µM | 5 to 25 µM | < 5 µM | < 5 µM | < 5 µM
13 | CS(=O)(=O)CCNCc1ccc(-c2ccc3ncnc(Nc4ccc(OCc5cccc(Br)c5)cc4)c3c2)o1 [Example 19, N-{4-[(3-bromobenzyl)oxy]phenyl}-6-[5-({[2-(methanesulphonyl)ethyl]amino}methyl)-2-furyl]-4-quinazolinamine] | < 0.1 µM | < 5 µM | > 50 µM | < 5 µM | < 5 µM | < 5 µM
14 | CS(=O)(=O)CCNCc1ccoc1-c1ccc2ncnc(Nc3ccc(OCc4ccccc4)cc3)c2c1 [Example 20, N-[4-(benzyloxy)phenyl]-6-[3-({[2-(methanesulphonyl)ethyl]amino}methyl)-2-furyl]-4-quinazolinamine] | < 0.1 µM | < 5 µM | > 50 µM | < 5 µM | 5 to 25 µM | < 5 µM
15 | CS(=O)(=O)CCNCc1ccc(-c2ccc3ncnc(Nc4ccc(OCc5cccc(F)c5)c(Cl)c4)c3c2)o1 [Example 29, N-{3-Chloro-4-[(3-fluorobenzyl)oxy]phenyl}-6-[5-({[2-(methanesulphonyl)ethyl]amino}methyl)-2-furyl]-4-quinazolinamine] |  | < 5 µM | > 50 µM | < 5 µM | < 5 µM | < 5 µM
